Laboratory results taken from patent US10064834B2, “Carbidopa for the treatment of cancer” (Texas Tech University System, priority 2016, dated 2018).
Where two headings read alike, the source gives them in different places.

Assays:
AhR [1] = test system: AhR
Description: With a fixed concentration (10 μM), the inventors compared in HepG2 cells the induction of CYP1A1 by Carbidopa with that by other known AhR agonists, which included 3-ethylcholanthrene, benzo[a]pyrene, kynurenine, indole-3-carbinol, and indole acetic acid (Table 1).

AhR [2] = details: Capan-2
AhR [3] = details: BxPC-3, Carbidopa 10 μM, 6 h
BxPC-3 cells [4] = assay: Subcutaneous BxPC-3 xenograft in athymic nude mice; type: in vivo, mouse
Description: FIGS. 2A and 2B show the in vivo effect of Carbidopa on the growth of BxPC-3 cells in mouse xenografts. The cells were injected subcutaneously in athymic nude mice. Carbidopa (1 mg/mouse) was injected intraperitoneally (i.p.) two days prior to the injection of the tumor cells (prevention mode). Drug injection was continued every day at the same dose. […] The growth of the tumor at the injected site was monitored every other day.
Xenograft studies. Female athymic nu/nu mice (8-week-old) were allowed to acclimatize to the environment for about a week before the start of the experiment. The animals were divided into control and treatment groups and injected with phosphate-buffered saline (control group) and Carbidopa @ 1 mg/mouse/day) (treatment group) intraperitoneally, at least 5 days prior to tumor cell injection. BxPC-3 (10×10^6 cells in 30% matrigel) was injected subcutaneously at the right flank of the mice. The treatment continued all through the experimental period. Tumor size in different groups were measured using a caliper and the tumor volume was calculated using the formula (width^2×length)/2.

[5] = test system: Ki-67, p-mTOR, HIF1α and Cyp1a1 protein expression; assay: Immunohistochemical analysis in MMTV-PyMT-Tg mice; type: in vivo, mouse; details: Carbidopa-treated MMTV-PyMT-Tg mice
Text: FIG. 8 is an immunohistochemical analysis of Ki-67, p-mTOR, HIF1α and Cyp1a1 protein expression in MMTV-PyMT-Tg mice treated with and without Carbidopa. […] Hypoxia is a key regulatory factor in tumor progression and in response to the hypoxic tumor environment, it regulates cell metabolism and redox homeostasis. HIF1α level in tumors is controlled by mTOR. […] To further validate the data, the inventors measured the expression of Cyp1a1 in MMTV-PyMT-Tg mice treated with and without Carbidopa. Cyp1a1 is an aryl hydrocarbon (AhR) receptor-responsive gene induced in response to AhR activation. AhR is activated by kynurenine, a product of IDO1 action on tryptophan. Thus, Cyp1a1 levels in tumor tissues serve as a read out for IDO1 activity. […] H&E, hematoxylin and eosin stain.

[6] = target: recombinant human indoleamine dioxygenase-1 (IDO1) (Homo sapiens, UniProt P14902); assay: IDO1 enzymatic activity assay (colorimetric); type: biochemical
Text: IDO-1 is an immunosuppressive enzyme that is induced in tumor cells and in immune cells present in tumor-draining lymph nodes. Induction of this enzyme suppresses the ability of the immune system to recognize tumor cells as foreign cells, which provides a means for the tumor cells to escape the immune attack. Pharmacological inhibition of this enzyme has potential in cancer treatment because such an approach will potentiate the ability of the immune system to kill the tumor cells. Many pharmaceutical companies have research programs in identifying selective inhibitors of IDO-1 for this purpose and some of the drugs are already in clinical trials in cancer patients. The present inventors assessed the ability of Carbidopa on the activity of this enzyme using the recombinant human enzyme.
To date, the only known pharmacological action of Carbidopa is the inhibition of aromatic amino acid decarboxylase, but the inventors are not aware of any direct association between this enzyme and cancer. Therefore, the inventors looked for new, hitherto unknown, pharmacological actions for this drug that could be related to the observed anticancer effect. […]

AhR [7] = assay: Immunofluorescence localisation of AhR; type: cell-based, human; details: 25 μM for 6 h
Description: Immunofluorescence. Immunofluorescence studies were performed as described [12]. Briefly, cells grown on chamber slides were fixed, blocked and stained with mouse anti-AhR antibody (Abcam, Cambridge, Mass., USA) for 45 min after which they were washed and stained with secondary antibody (goat anti-mouse IgG) conjugated with Alexa Fluor 488 (Molecular Probes, Eugene, Oreg., USA); further washed and mounted with ProLong Diamond Antifade mountant with DAPI and the images were captured using a Nikon inverted microscope. Nuclei stained with DAPI are blue. Magnification, 100×.

[8] = test system: spontaneous breast cancer driven by the polyoma middle T antigen oncogene; assay: Spontaneous breast cancer in MMTV-PyMT-Tg mice; type: in vivo; details: 1 mg/mouse i.p.
Text: The MMTV-PyMT-Tg mice develop spontaneous breast tumors within 2 months of age. […] The drug treatment was started at 4 weeks of age and continued for two months. The mice were photographed at the end of this experimental period. The circles indicate the tumor size in two representative control mice and two representative Carbidopa-treated mice. […] The MMTV-PyMT-Tg mice develop spontaneous breast tumors within 2 months of age. […] The drug treatment was started at 4 weeks of age and continued for three months. The mice were photographed at the end of the study period. The circles indicate the tumor size in two representative control mice and two representative Carbidopa-treated mice.

hTERT-HPNE cells = assay: Colony formation (clonogenic) assay, normal pancreatic cell line; type: cell-based, human; details: 10 μM, two weeks
Description: (§1) Cell proliferation. Clonogenic assay was performed as described. The cells were seeded at a very low density (500 cells/well) and allowed to attach to the substratum. […] The wells were washed every other day and fresh Carbidopa was added to the wells. At the end of the two-week period, the wells were washed and the colonies were visualized with KaryoMax Giemsa stain after fixation with methanol. The stain was eluted with 1% sodium dodecyl sulfate in […] and the absorbance was measured at 630 nm. Inhibition of pancreatic cancer cell proliferation by Carbidopa and its potential relevance to the ability of the drug to inhibit IDO1. To test whether Carbidopa has anticancer effect, the inventors used pancreatic cancer as a model. For this, the inventors first conducted a colony formation assay with a human pancreatic normal cell line (hTERT-HPNE) and two human pancreatic cancer cell lines (BxPC-3 and Capan-2). […] To corroborate these in vitro data, the inventors performed subcutaneous xenografts in athymic nude mice using BxPC-3 cells.

[9] = cited from earlier work
[10] = human, oral, cited from earlier work
Capan-2 cells = assay: Colony formation (clonogenic) assay, Capan-2; type: cell-based, human; details: Capan-2, 10 μM, two weeks
Description: as §1

[11] = in vivo; cited from earlier work
BxPC-3 cells [12] = assay: Colony formation (clonogenic) assay, BxPC-3; type: cell-based, human
Description: Clonogenic assay was performed as described [12]. The cells were seeded at a very low density (500 cells/well) and allowed to attach to the substratum. They were then treated with 10 μM Carbidopa and the colonies were allowed to grow for two weeks. The wells were washed every other day and fresh Carbidopa was added to the wells. At the end of the two-week period, the wells were washed and the colonies were visualized with KaryoMax Giemsa stain after fixation with methanol. The stain was eluted with 1% sodium dodecyl sulfate in 0.2 NaOH and the absorbance was measured at 630 nm.

Panc-1 cells = assay: Colony formation assay, Panc-1; type: cell-based; details: Homo sapiens; Panc-1, colony formation; read-out: Carbidopa concentration for 50% inhibition of growth
Text: Colony formation assay was used to assess the effect.

[13] = in vivo; cited from earlier work; remark: listed apart in the source
HCC-1937 cells = assay: Colony formation assay, BRCA-1 mutant breast cancer cells; type: cell-based, human
Text: Breast cancer occurs in different subtypes: estrogen receptor-positive, estrogen receptor-negative, and BRCA1-mutant. Mutations in BRCA-1 represent a small percentage of breast cancers in women but the disease is inheritable. […] To assess the potential of Carbidopa for the treatment of mutant BRCA-1-driven breast cancer, the inventors used the human breast cancer cell line HCC-1937, a well-established model to study mutant BRCA-1-driven breast cancer in model systems. The inventors monitored the effect of Carbidopa (dose response) on the growth of these cells using the colony formation assay.

MB-231 cells = assay: Colony formation assay, ER-negative breast cancer cells; type: cell-based, human
Text: Breast cancer occurs in different subtypes: estrogen receptor-positive, estrogen receptor-negative, and BRCA1-mutant. The MMTV-PyMT-Tg mice represent estrogen receptor-positive breast cancer at least at the initial stages. To assess the potential of Carbidopa for the treatment of ER-negative breast cancer, the inventors used the human breast cancer cell line MB-231, a well-established model to study ER-negative breast cancer in model systems. The inventors monitored the effect of Carbidopa (dose response) on the growth of these cells using the colony formation assay.

[14] = target: indoleamine-2,3-dioxygenase 1 (IDO1) (Homo sapiens, UniProt P14902); details: reference [13]; cited from earlier work
Chain of indoleamine-2,3-dioxygenase 1 (IDO1) (P14902 whole entry): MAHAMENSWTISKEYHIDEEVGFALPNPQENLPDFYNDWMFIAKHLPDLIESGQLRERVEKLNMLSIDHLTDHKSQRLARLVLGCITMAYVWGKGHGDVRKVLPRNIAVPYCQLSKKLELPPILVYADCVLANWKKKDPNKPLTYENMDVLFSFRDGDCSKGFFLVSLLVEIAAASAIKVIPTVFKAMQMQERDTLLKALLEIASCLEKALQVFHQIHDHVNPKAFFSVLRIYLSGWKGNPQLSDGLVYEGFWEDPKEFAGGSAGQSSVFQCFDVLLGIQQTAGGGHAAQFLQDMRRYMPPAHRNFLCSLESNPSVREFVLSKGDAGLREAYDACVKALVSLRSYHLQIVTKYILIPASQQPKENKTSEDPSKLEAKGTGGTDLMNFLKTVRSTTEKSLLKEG

Chain of recombinant human indoleamine dioxygenase-1 (IDO1) (P14902 whole entry): as above

## Cc1ccc2cc3c(ccc4ccccc43)c3c2c1CC3 [3-Methylcholanthrene]
AhR [1]; HepG2 cells, 10 micromolar
  CYP1A1 expression, Fold [range]: 56.8 Fold

## c1ccc2c(c1)cc1ccc3cccc4ccc2c1c34 [Benzo [a] pyrene]
AhR [1]; HepG2 cells, 10 micromolar
  CYP1A1 expression, Fold [range]: 35.3 Fold

## Cc1ccccc1N=Nc1ccc(NC(=O)c2ccnn2C)c(C)c1 [CH223191]
AhR [2]
  effect of AhR antagonist on Carbidopa-induced CYP1A1 expression: blocked
AhR [3]
  effect of AhR antagonist on Carbidopa-induced CYP1A1 expression: blocked
AhR [1]; HepG2, Carbidopa 10 μM, CH223191 10 μM, resveratrol 20 μM, 6 h
  effect of AhR antagonist on Carbidopa-induced CYP1A1 expression: blocked

## C[C@@](Cc1ccc(O)c(O)c1)(NN)C(=O)O [Carbidopa, (2S)-3-(3,4-dihydroxyphenyl)-2-hydrazino-2-methylpropanoic acid]
BxPC-3 cells [4]; 1 mg/mouse i.p. every day, prevention mode
  growth of the tumor: reduced the growth of the tumor markedly
BxPC-3 cells [4]; daily dose of 1 mg/mouse, intraperitoneal
  tumor volume compared to untreated controls: significantly reduced the tumor volume
[5]
  Cyp1a1 expression in tumor tissues: significant reduction in Cyp1a1 expression
  HIF1α protein: marked decrease in HIF1α protein
  Ki-67 staining (cell proliferation): marked reduction in proliferation
  p-mTOR staining: marked reduction in p-mTOR staining
[6]; 10 μM
  inhibition of IDO-1 enzyme activity: inhibits IDO-1 significantly
[6]; colorimetric assay of kynurenine, efficacy said to be markedly underestimated
  inhibition of IDO1 enzyme activity: does indeed inhibit IDO1
AhR [7]; BxPC-3 cells
  localisation of AhR: nuclear translocation of the receptor
AhR [7]; Capan-2 cells
  localisation of AhR: nuclear translocation of the receptor
AhR [7]; HepG2 cells
  localisation of AhR: led to the nuclear translocation of AhR
[8]; treatment for three months
  number and size of the tumors: reduced the number and size of the tumors
[8]; treatment for two months
  number and size of the tumors: reduced the number and size of the tumors
hTERT-HPNE cells
  number of colonies compared to untreated controls: not seen
[9]; <400 mg/day in patients weighing 60 kg
  side effects in humans: no unwanted side effects
[9]; dose as high as 450 mg/day
  safety in humans: safe
[10]; 75 mg/day dose
  plasma concentration: 2 µM
[10]; 450 mg/day dose
  plasma concentration: 16 µM
Capan-2 cells
  number of colonies compared to untreated controls: significantly reduced
[11]
  oral bioavailability: orally bioavailable
BxPC-3 cells [12]; 10 μM Carbidopa, colony formation
  growth of BxPC-3 cells: almost completely abolished
BxPC-3 cells [12]; BxPC-3, 10 μM, two weeks
  number of colonies compared to untreated controls: significantly reduced
Panc-1 cells
  IC50: < 50 µM
[13]
  crossing of the blood-brain barrier: inability of the latter to cross the blood-brain barrier
AhR [1]
  concentrations at which Carbidopa activates AhR: 3 to 10 µM
AhR [1]; human, 10 μM
  CYP1A1 expression, Fold [range]: 2.63 Fold
  time post-treatment at which CYP1A1 induction is seen: ≤ 3 h
HCC-1937 cells; HCC-1937, dose response
  effect on the growth of the cells: marked inhibitory effect
HCC-1937 cells; Homo sapiens, HCC1937, HCC-1937, colony formation, read-out: Carbidopa concentration for 50% inhibition of growth
  IC50: < 25 µM
MB-231 cells; Homo sapiens, MB-231, colony formation, read-out: Carbidopa concentration for 50% inhibition of growth
  IC50: < 15 µM
MB-231 cells; MB-231, dose response
  effect on the growth of the cells: marked inhibitory effect

## OCc1c[nH]c2ccccc12 [Indole 3-carbinol]
AhR [1]; HepG2 cells, 10 micromolar
  CYP1A1 expression, Fold [range]: 7.62 Fold

## Nc1ccccc1C(=O)CC(N)C(=O)O (stereo not shown) [Kynurenine]
AhR [1]; human, 10 μM
  CYP1A1 expression, Fold [range]: 3.97 Fold

## N[C@@H](Cc1ccc(O)c(O)c1)C(=O)O [L-DOPA, L-3,4-dihydroxyphenylalanine]
AhR [1]; human, 6 h, 100 μM
  CYP1A1 mRNA expression: did not affect CYP1A1 expression

## NNc1ccccc1 [phenylhydrazine]
[14]
  IC50: 8 ± 2 µM
